Reference: patent US20120245229A1, “METHOD FOR TREATING NEUROPATHIC PAIN” (priority 2009, published 2012)
Where two headings read alike, the source gives them in different places.

Columns and labels:
[1] = tested on: complete Freund's adjuvant (CFA)-evoked heat hyperalgesia; assay: CFA-evoked heat hyperalgesia (paw withdrawal latency, Hargreaves); type: in vivo, mice; conditions: intrathecal; for effective doses relative to that of RvE1: CFA heat hyperalgesia
Description: (§1) Animals and pain models. Adult CD1 mice (male, 25-32 g) were used for most experiments. Knockout mice were used lacking TNFR1/II (Tnfrsf1a/1b^−/−) and TRPV1 (Trpv1^−/−) and C57BL/6 wild-type control mice, all from Jackson, for some experiments. All animal procedures performed in this study were approved by the Harvard Medical Area Standing Committee on Animals. 20 μl of diluted formalin (5%), carrageenan (CRG, 1%), or complete Freund's adjuvant (CFA) were injected into the plantar surface of a hindpaw to produce acute, persistent, or chronic inflammatory pain, respectively. Postoperative pain was also produced through hindpaw incision^36 and neuropathic pain by ligation of the spinal nerve^37.
(§2) Reagents and administration. RvE1 and RvD1 were suspended in 1% or 10% ethanol as vehicle for investigating acute (<1 h) and persistent (1-6 h) effects of resolvins on inflammatory pain. The reagents (10 μl) were delivered to the cerebral spinal fluid via intrathecal injection made by a spinal cord puncture between the L5 and L6 level with a 30G needle^38.
(§3) Behavioral analysis. Mice were habituated in the testing environment for two days and performed behavioral testing in a blinded manner. Formalin-evoked spontaneous inflammatory pain was assessed by measuring duration (seconds) animals spent on licking/flinching the affected paws every 5 min for 45 min. Capsaicin-induced spontaneous pain was aslo assessed for 10 min. For testing mechanical sensitivity, mice were put in boxes on an elevated metal mesh floor and stimulated hindpaw with a series of von Frey hairs with logarithmically incrementing stiffness (0.02-2.56 grams, Stoelting), presented perpendicular to the plantar surface. It was determined the 50% paw withdrawal threshold using Dixon's up-down method^40. For testing heat sensitivity, mice were placed in plastic boxes and tested heat sensitivity using Hargreaves radiant heat apparatus (IITC Life Science Inc.). The basal paw withdrawal latency was adjusted to 9-12 seconds and set a cut-off of 20 seconds to prevent tissue damage. The percent maximal possible antinociceptive effect (% M.P.E) was calculated using the equation % M.P.E.=[(PL−BL2)/(BL1−BL2)]×100. BL1, baseline latency before inflammation; BL2, baseline latency after inflammation but before drug injection; PL, latency post drug injection.
(§4) Intrathecal injection. To avoid systemic effects of drugs and target spinal mechanisms, drugs were delivered into cerebral spinal fluid (CSF) space around lumbosacral spinal cord via intrathecal (i.t.) administration. Spinal cord puncture was made with a 30G needle between the L5 and L6 level to deliver the reagents (10 μl) to the cerebral spinal fluid (Hylden and Wilcox, 1980)^5. […] In addition to spinal cord cells, intrathecal drug administration also affects DRG cells^6,7.
The anti-hyperalgesic efficacy of RvE1 prepared in 1% and 10% ethanol was compared on post-CFA day 3.

[2] = tested on: SNL-induced neuropathic pain; assay: Neuropathic pain model induced by spinal nerve ligation (SNL); type: in vivo, mice; conditions: for SNL-induced heat hyperalgesia: 10 ng, i.t., one day after spinal nerve ligation
Description: as §1, §3

[3] = tested on: lamina II neurons; assay: Patch clamp recording of sEPSCs in lamina II neurons of spinal cord slices; type: cell-based, mice
Description: (§5) Spinal cord slice preparation. As previously reported^39, a portion of the lumbar spinal cord (L4-L5) was removed from young mice (3-4 week old) under urethane anesthesia (1.5-2.0 g/kg, i.p.) and transverse spinal cord slices were cut (600 μm) on a vibrating microslicer. The slices were perfused with Kreb's solution (8 ml/min) for >2 h prior to experiments. Some slices were stimulated with TNF-α (10 ng/ml, 5 min), the slices were fixed with 4% paraformaldehyde for 1 h, and processed pERK immunohistochemistry using thin sections (15 μm)^13.
(§6) Patch clamp recordings in spinal slices. Whole cell patch-clamp recordings were performed in lamina II neurons in voltage clamp mode^39. After establishing the whole-cell configuration, neurons were held at the holding potentials of −70 mV for recording spontaneous excitatory postsynaptic current (sEPSC). NMDA-induced currents were recorded by bath application of NMDA (50 μM, Sigma) at the holding potential of −50 mV. Membrane currents were amplified with an Axopatch 200A amplifier (Axon Instruments) in voltage-clamp mode. pCLAMP 6 was used and Mini Analysis (Synaptosoft Inc.) software to store and analyze the data. Those cells showing >5% changes from the baseline levels were reagrded as responding ones^24.
(§7) Resolvins were also used for intraplantar injection. RvD1 or RvE1 was injected into the plantar surface of a hindapaw [20 ng, 20 μl , in 1% ethanol (Supplementary FIG. 5a, 5b) or in 10% ethanol (FIG. 2e, Supplementary FIG. 1d)]. DRG cultures were incubated with RvE1 (10 ng/ml, 0.1% ethanol in culture medium) and perfused spinal cord slices with RvE1 (1 ng/ml, in 0.01% ethanol and Kreb's solution).
(§8) Perfusion of spinal cord slices: Spinal cord slices were incubated with chemerin (100 ng/ml, in Kreb's solution), TNF-α (10 ng/ml, in Kreb's solution), capsaicin (100 nM, in 0.01% DMSO and Kreb's solution), TRPV1 antagonist capsazepine (Sigma, 10 μM, in 0.01% DMSO and Kreb's solution), pertussix toxin (0.5 μg/ml, in Kreb's solution), and MEK inhibitor PD98059 and U0126 (CalBiochem, 1 μM, in 0.01% DMSO and Kreb's solution). For pertussix toxin treatment, spinal cord slices were incubated with the toxin for 3 h before stimulation.

[4] = tested on: glutamate NMDA receptors (NMDARs); assay: NMDA-induced currents in dorsal horn (lamina II) neurons of spinal cord slices; type: cell-based, mice; conditions: NMDA 50 μM; TNF-α 10 ng/ml; PD98059 1 μM, U0126 1 μM, capsazepine 10 μM
Description: as §5, §6, §7, §8

[5] = tested on: formalin-induced inflammatory pain; assay: Formalin-induced spontaneous inflammatory pain (licking/flinching duration); type: in vivo, mice; conditions: for formalin-induced pain behavior, 2nd phase: preemptive intrathecal injection, RvE1 0.3 and 1.0 ng, morphine 10 to 500 ng, NS-398 0.1, 1, and 10 μg, chemerin 0.45 to 100 ng; for reversal of RvE1's antinociceptive action, formalin 2nd phase: intrathecal, pertussis toxin 0.2 μg, naloxone 2 μg, ChemR23 siRNA 3 μg daily for 3 days before formalin
Description: as §1, §2, §3, §4
Intrathecal injection: DHA and EPA (Cayman Chemical, 10 μg, prepared in 1% ethanol), COX-2 inhibitor NS-398 (Sigma, 0.1, 1, and 10 μg, prepared in 1% ethanol in FIG. 1a-c or in 10% ethanol in FIG. 2c), morphine (Sigma, 10 to 500 ng, prepared in 1% ethanol in FIG. 1a-c), naloxone (Sigma, 2 μg, prepared in 1% ethanol), pertussis toxin (Tocris Bioscience, 0.2 μg, prepared in saline), chemerin (R & D Systems, 0.45 to 100 ng, prepared in 1% ethanol), TNF-α (R & D Systems, 20 ng, prepared in saline), and capsaicin (Sigma, 0.5 μg in 10 μl, prepared in 1% DMSO) were delivered. To examine whether pretreatment of RvE1 attenuated TNF-α-induced persistent hyperalgesia at 1, 3, and 24 h, RvE1 and TNF-α were mixed and injected at the same time (FIG. 3c). To examine whether pretreatment of RvE1 attenuates capsaicin-induced acute spontaneous pain, RvE1 and capsaicin were mixed and injected at the same time (FIG. 3f).

[6] = tested on: carrageenan (CRG)-elicited heat hyperalgesia; assay: Carrageenan (CRG)-elicited heat hyperalgesia; type: in vivo, mice; conditions: intraplantar ChemR23 siRNA 4 μg at 48 h, 24 h, and 3 h before carrageenan; 4 h after CRG
Description: as §1, §3
Resolvins were also used for intraplantar injection. […]

[7] = tested on: ChemR23; assay: ChemR23 western blotting after siRNA knockdown; type: in vivo, mice
Description: siRNAs were mixed with the transfection reagent polyethyleneimine (PEI, Fermentas), 10 min before injection, to increase cell membrane penetration and reduce the degradation (Tan et al., 2005; 2009)^9,10. PEI was dissolved in 5% glucose, and […] of siRNA was mixed with 0.18 μl of PEI, as shown in our previous study (Kawasaki et al., 2008)^7. In the formalin model, siRNA was administrated via intrathecal route (3 μg), delivered at 72 h, 48 h, and 24 h before formalin injection (supplementary FIG. 1a, b). In the carrageenan model, siRNA was administrated via intraplantar route (4 μg), delivered at 48 h, 24 h, and 3 h before carrageenan injection (supplementary FIG. 1c, d). The knockdown effects of ChemR23 siRNA were examined by Western blotting using a ChemR23 antibody (Santa Cruz).
Animals were transcardially perfused with PBS, and the skin, DRG, and spinal cord tissues were rapidly removed and homogenized in a lysis buffer containing a cocktail of protease inhibitors and phosphatase inhibitors. The protein concentrations were determined by BCA Protein Assay (Pierce), and 30 μg of proteins were loaded for each lane and separated on SDS-PAGE gel (4-15%, Bio-Rad). After the transfer, the blots were incubated overnight at 4° C. with polyclonal antibody against ChemR23 (goat, 1:200, Santa Cruz). For loading control, the blots were probed with tubulin antibody (mouse, 1:5000, Sigma).

[8] = tested on: inflammatory pain; assay: Inflammatory pain models induced by formalin or CFA (summary statements); type: in vivo, mouse
Description: as §1, §3

[9] = capsaicin 100 nM, RvE1 1 ng/ml, chemerin 100 ng/ml, PD98059 and U0126 1 μM

Molecule: O=C(O)CCC[C@H](O)\C=C/C=C/C=C/[C@H](O)C/C=C\C=C\[C@@H](O)COc1ccc(F)cc1 [19-pf-RvE1, 19-(p-fluorophenoxy)-RvE1]
- time for which hyperalgesia was reduced ([1]; post-CFA day 3): 6 h
- SNL-induced heat hyperalgesia [2]: more persistent reduction in heat hyperalgesia
- SNL-induced heat hyperalgesia ([2]; listed as modified RvE1): reduces SNL-induced heat hyperalgesia

Molecule: N#CC(=C(/N)Sc1ccccc1N)/C(C#N)=C(\N)Sc1ccccc1N [U0126, reference compound]
- capsaicin-evoked sEPSC frequency increase [3]: blocked
- TNF-α-induced potentiation of NMDA currents (NMDAR activation) [4]: blocked

Molecule: CS(=O)(=O)Nc1ccc([N+](=O)[O-])cc1OC1CCCCC1 [NS-398]
- formalin-induced pain behavior, 2nd phase [5]: Reduction

Molecule: CCC(=O)/C=C/C=C\C[C@@H](O)/C=C/C=C/C=C\[C@@H](O)CCCC(=O)O [18-oxo-RvE1, reference compound]
- CFA-evoked heat hyperalgesia ([1]; post-CFA day 3, DHA and EPA 10 μg): essentially inactive

Molecule: ChemR23 siRNA: 5′-AACACUGUGUGGUUUGUCAACtt-3′, synthesized by Dharmacon (guide AACACUGUGUGGUUUGUCAACTT; chemistry not given here)
- reversal of RvE1's antinociceptive action, formalin 2nd phase [5]: reverses RvE1-induced antinociceptive effect
- reversal of RvE1-induced anti-hyperalgesic effect [6]: reverses RvE1-induced anti-hyperalgesic effect
- ChemR23 expression in the hindpaw skin ([7]; intraplantar siRNA 4 μg at 48 h, 24 h, and 3 h before carrageenan): reduces ChemR23 expression in the hindpaw skin
- ChemR23 expression in the DRG ([7]; intrathecal siRNA 3 μg, daily for 3 days, before formalin injection): reduces ChemR23 expression in the DRG

Molecule: CC/C=C\C/C=C\C/C=C\C/C=C\C/C=C\CCCC(=O)O [EPA, eicosapentaenoic acid, reference compound]
- effective doses relative to that of RvE1 [1]: 10,000 times higher

Molecule: C=CCN1CC[C@]23c4c5ccc(O)c4O[C@H]2C(=O)CC[C@@]3(O)[C@H]1C5 [naloxone]
- reversal of morphine's antinociceptive effect, formalin 2nd phase ([5]; intrathecal naloxone 2 μg): reversed
- reversal of RvE1's antinociceptive action, formalin 2nd phase [5]: not RvE1's effect

Molecule: pertussis toxin
- reversal of RvE1's antinociceptive action, formalin 2nd phase [5]: abrogated

Molecule: COc1cc(CNC(=O)CCCC/C=C/C(C)C)ccc1O [capsaicin, reference compound]
- increase in sEPSC frequency ([3]; capsaicin 100 nM): 2 fold

Molecule: CN1CC[C@]23c4c5ccc(O)c4O[C@H]2[C@@H](O)C=C[C@H]3[C@H]1C5 [morphine]
- formalin-induced pain behavior, 2nd phase [5]: Reduction

Molecule: COc1cccc(-c2cc(=O)c3ccccc3o2)c1N [PD98059, reference compound]
- capsaicin-evoked sEPSC frequency increase [3, 9]: blocked
- TNF-α-induced potentiation of NMDA currents (NMDAR activation) [4]: blocked

Molecule: CC/C=C\C[C@H](O)\C=C/C=C/C=C/[C@H](O)C/C=C\C/C=C\CCC(=O)O [PD1]
- nerve injury-induced hyperalgesia ([2]; neuropathic pain model induced by spinal nerve ligation): potently attenuate
- pain-like behaviors [8]: potently inhibit

Molecule: CC/C=C\C/C=C\C/C=C\C/C=C\C/C=C\C/C=C\CCC(=O)O [DHA, docosahexaenoic acid, reference compound]
- effective doses relative to that of RvE1 [1]: 10,000 times higher

Molecule: Oc1cc2c(cc1O)CN(C(=S)NCCc1ccc(Cl)cc1)CCC2 [capsazepine, reference compound]
- TNF-α-evoked sEPSC frequency increase ([3]; TNF-α 10 ng/ml, RvE1 1 ng/ml, capsazepine 10 μM): reduced
- TNF-α-induced potentiation of NMDA currents (NMDAR activation) [4]: but not capsazepine blocked

B1: chemerin: a peptide agonist for ChemR23 (R & D Systems) (protein, UniProt Q99969 21-157, looked up)
Retinoic acid receptor …: ELTEAQRRGLQVALEEFHKHPPVQWAFQETSVESAVDTPFPAGIFVRLEFKLQQTSCRKRDWKKPECKVRPNGRKRKCLACIKLGSEDKVLGRLVHCPIETQVLREAEEHQETQCLRVQRAGEDPHSFYFPGQFAFS
modifications: Chemerin
- formalin-induced pain behavior, 2nd phase [5]: dose-dependently attenuated
- capsaicin-evoked sEPSC frequency increase [3, 9]: abolished
